SMILES strings stand for the structures. Converted amounts (≈) assume the structure as drawn. Like-named read-outs stand apart in the source and are kept apart here.

Data set [1] in a line: AF dye fluorescence quenching assay. The following applies: at 30 µM; n = 1. How it is done:
Employing filter criteria like < 65% control in the primary assay and a minimum difference of 30% to the SR-B1 counter screen, about 3300 compounds remained. These compounds were tested in concentration response using both assay formats (Supplementary Fig. 1). To qualify the identified compounds further we developed additional assays with the goal to identify compounds that merely quenched the AF dye fluorescence. In this assay, the fluorescence signal of human AF647- or AF594-labeled oxLDL was recorded in the presence and absence of compound. Only compounds without relevant quenching were subsequently selected for further analysis.
Furthermore, quenching assays were established to eliminate compounds showing quenching of the AF594 or AF647 dye fluorescence. For this, human oxLDL labeled with either AF594 or AF647 was incubated with compound and the fluorescence signal with and without compound was measured to determine the quenching of the fluorescence. For both compounds quenching of fluorescence has been tested with n = 1.

Data set [2] can be described thus: High throughput solubility. The following applies: for solubility at 24 h: aqueous buffer, kinetic from dmso stock, n = 1. The format is physicochemical. Here is the method: The aqueous solubility of the test compound is determined by comparing the amount dissolved in buffer to the amount in an acetonitrile/water (1/1) solution. Starting from a 10 mM DMSO stock solution aliquots are diluted with acetonitrile/water (1/1) or buffer resp. After 24h of shaking, the solutions are filtrated and analyzed by LC-UV. The amount dissolved in buffer is compared to the amount in the acetonitrile solution. Solubility will usually be measured from 0.001 to 0.125 mg/ml at a DMSO concentration of 2.5%. The solubility at the different pH values for BI-0115 were measured with n = 1.

With `CCCN1C(=O)c2ccc(Cl)cc2Nc2ncccc21` [BI-0115], the “Quench Assay” value in data set [1] is −9.1%. Besides, the solubility (commonly the dissolved amount per volume that the medium holds) at 24 h in data set [2] (pH 4, aqueous buffer, pH4, read-out: Solubility pH4) is 1 µg/mL (≈ 3.48 µM); in data set [2] (pH 7, aqueous buffer, pH7, read-out: Solubility pH7) it was 1 µg/mL (≈ 3.48 µM). Further, in data set [2] (in words), the compound solubility entry was “low”.
